Source: US10556865B2, “Synergistic herbicidal composition containing certain pyridine or pyrimidine carboxylic acids and certain cereal and rice herbicides” (Dow AgroSciences, LLC, priority 2007, dated 2020)
Where two headings read alike, the source gives them in different places.

Tests used:
Assay type in all cases: in vivo
[1] = system: scented mayweed (Matricaria chamomila L; MATCH); assay: Postemergence herbicidal activity of mixtures in cereal crops (greenhouse, visual injury); conditions: Matricaria, post-emergence, read-out: MATCH Ob
Outline: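 Weeds grown in greenhouse (~14 h photoperiod, ~18/17 °C day/night) to second–third true leaf stage, sprayed postemergence with compound and second cereal herbicide alone or combined; solvent-blank controls. Injury scored visually after 20-22 days, 0–100% (complete kill); expected mixture activity = A+B−(A×B/100).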

[2] = system: Echinochloa species (ECHSS); assay: Herbicidal mixtures for weed control in transplanted paddy rice (in-water application, visual % injury after 3 weeks); conditions: for % Injury ECHOR Ob: ECHOR = Echinocloa oryzoides; for % Injury ECHCG Ob: ECHCG = Echinochloa crus-galli
Outline: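 Mixtures injected into paddy water of flooded pots (transplanted rice, weeds at 2nd–3rd true leaf stage, ~29/26 °C greenhouse); compounds A, C, D dosed as acid equivalent, partners as active ingredient, in acetone/crop oil concentrate carrier. Injury scored visually after 3 weeks versus untreated plants, 0 (none) to 100% (complete kill).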

[3] = system: Fimbristylis miliacea (L.) VAHL (FIMMI); assay: Herbicidal mixtures for weed control in transplanted paddy rice (in-water application, visual % injury)
Outline: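 Weeds sown in flooded puddled mineral soil (pH ~7.3–7.8, ~1.0% organic matter) and treated at second–third true leaf stage by injecting acetone/2.5% Agri-dex stock into the paddy water. A, C and D dosed as acid equivalent, partner herbicides as active ingredient. Injury scored visually after 3 weeks in greenhouse, 0–100% versus untreated plants.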

[4] = Compound A Methyl 17.5 g/ha alone
[5] = Compound A TEA 35 g/ha alone (Table 111)

Compound COC(=O)c1nc(-c2ccc(Cl)c(OC)c2F)cc(N)c1Cl [Compound A Methyl, 4-amino-3-chloro-6-(4-chloro-2-fluoro-3-methoxyphenyl)pyridine-2-carboxylic acid methyl ester] has a pest or weed control at 17.5 g/ha ([1]; 17.5 g/ha) of 15%, a pest or weed control at 35 g/ha ([1]; 35 g/ha) of 68% and a pest or weed control at 70 g/ha ([1]; 70 g/ha) of 65%. For the same compound, the “% Injury Ob” value ([2]; ECHCG, 4.38 g/ha alone) was 0%, the “% Injury Ob” value ([2]; ECHCG, 17.5 g/ha alone) was 0% and the “% Injury Ob” value ([2]; ECHCG, 35 g/ha alone) was 25%. The “% Injury Ob” value ([2]; ECHCO, 8.75 g/ha alone) was 0%, the “% Injury Ob” value ([2]; ECHCO, 17.5 g/ha alone) was 25% and the “% Injury Ob” value ([2]; ECHCO, 35 g/ha alone) was 20%. For the same compound, the “% Injury ECHOR Ob” value [2, 4] was 0%, the “% Injury ECHOR Ob” value ([2]; Compound A Methyl 35 g/ha alone) was 10% and the “% Injury Ob” value ([3]; 17.5 g/ha alone) was 20%. For the same compound, the “% Injury FIMMI Ob” value [3, 4] was 20%.
COc1c(Cl)ccc(-c2cc(N)c(Cl)c(C(=O)O)n2)c1F [Compound A TEA, 4-amino-3-chloro-6-(4-chloro-2-fluoro-3-methoxyphenyl)pyridine-2-carboxylic acid] showed a pest or weed control at 8.75 g/ha ([1]; 8.75 g/ha alone) of 71%, a pest or weed control at 8.75 g/ha ([1]; 8.75 g/ha) of 71% and a pest or weed control at 17.5 g/ha ([1]; 17.5 g/ha alone) of 76%. The pest or weed control at 17.5 g/ha ([1]; 17.5 g/ha) was 76%, the pest or weed control at 35 g/ha ([1]; 35 g/ha alone) was 84% and the pest or weed control at 70 g/ha ([1]; 70 g/ha alone) was 94%. The pest or weed control at 140 g/ha ([1]; 140 g/ha) was 65%, the “% Injury ECHCG Ob” value ([2]; Compound A TEA 17.5 g/ha alone) was 10% and the “% Injury ECHCG Ob” value ([2]; Compound A TEA 35 g/ha alone) was 80%. For the same compound, the “% Injury ECHCG Ob” value [2, 5] was 10%, the “% Injury Ob” value ([2]; ECHCG, 70 g/ha alone) was 50% and the “% Injury ECHOR Ob” value ([2]; Compound A TEA 17.5 g/ha alone (Table 113)) was 0%. For the same compound, the “% Injury ECHOR Ob” value [2, 5] was 10%, the “% Injury ECHOR Ob” value ([2]; Compound A TEA 35 g/ha alone (Table 113)) was 10% and the “% Injury Ob” value ([3]; 17.5 g/ha alone) was 30%. The “% Injury Ob” value ([3]; 35 g/ha alone) was 0%, the “% Injury Ob” value ([3]; 70 g/ha alone) was 0% and the “% Injury FIMMI Ob” value ([3]; Compound A TEA 17.5 g/ha alone) was 30%.
In the case of COC(=O)c1nc(-c2ccc(Cl)c(OC)c2F)nc(N)c1Cl [Compound B Methyl, 6-amino-5-chloro-2-(4-chloro-2-fluoro-3-methoxyphenyl)pyrimidine-4-carboxylic acid methyl ester], the pest or weed control at 8.75 g/ha ([1]; 8.75 g/ha alone) is reported as 10%, the pest or weed control at 17.5 g/ha ([1]; 17.5 g/ha alone) is reported as 10% and the pest or weed control at 35 g/ha ([1]; 35 g/ha alone) is reported as 40%. It also gave a pest or weed control at 70 g/ha ([1]; 70 g/ha alone) of 45%.
For O=C(O)c1c(Cl)ccc2cc(Cl)cnc12 [Quinclorac], the “% Injury ECHCG Ob” value ([2]; Quinclorac 70 g/ha alone) was 0%, the “% Injury ECHCG Ob” value ([2]; Quinclorac 140 g/ha alone) was 0% and the “% Injury ECHOR Ob” value ([2]; Quinclorac 70 g/ha alone) was 0%. For the same compound, the “% Injury FIMMI Ob” value ([3]; Quinclorac 140 g/ha alone (Compound A Methyl half)) was 0% and the “% Injury FIMMI Ob” value ([3]; Quinclorac 140 g/ha alone (Compound A TEA half)) was 0%.
